Data from US5198433A, “Lactamimides as calcium antagonists” (Merrell Dow Pharmaceuticals Inc., priority 1992, dated 1993).

Experiments:
[1] = biological target: T1, K^+ -depolarized guinea pig ileum or taenia (Cavia porcellus); experiment: Antagonism of Ca^++ -induced contractions of K^+ -depolarized guinea pig taenia or ileum; format: cell-based; conditions: for pA2: Table 1, guinea pig ileum or taenia, K^+ -depolarized, Ca^++ -induced contraction, Arunlakshana & Schild; for mean pA2 value (95% confidence interval), Schild plot / mean slope (±S.D.) of Schild plot: FIG. 6, 40 mM K^+ -depolarized guinea pig ileum
T1 construct: pieces of ileum, 2 cm in length, from male guinea pigs (200-400 g) were set up in isolated organ baths; from tissue; host or cells: strips of taenia from the caecum or pieces of ileum of male guinea pigs
T1 sequence (O35505 whole entry): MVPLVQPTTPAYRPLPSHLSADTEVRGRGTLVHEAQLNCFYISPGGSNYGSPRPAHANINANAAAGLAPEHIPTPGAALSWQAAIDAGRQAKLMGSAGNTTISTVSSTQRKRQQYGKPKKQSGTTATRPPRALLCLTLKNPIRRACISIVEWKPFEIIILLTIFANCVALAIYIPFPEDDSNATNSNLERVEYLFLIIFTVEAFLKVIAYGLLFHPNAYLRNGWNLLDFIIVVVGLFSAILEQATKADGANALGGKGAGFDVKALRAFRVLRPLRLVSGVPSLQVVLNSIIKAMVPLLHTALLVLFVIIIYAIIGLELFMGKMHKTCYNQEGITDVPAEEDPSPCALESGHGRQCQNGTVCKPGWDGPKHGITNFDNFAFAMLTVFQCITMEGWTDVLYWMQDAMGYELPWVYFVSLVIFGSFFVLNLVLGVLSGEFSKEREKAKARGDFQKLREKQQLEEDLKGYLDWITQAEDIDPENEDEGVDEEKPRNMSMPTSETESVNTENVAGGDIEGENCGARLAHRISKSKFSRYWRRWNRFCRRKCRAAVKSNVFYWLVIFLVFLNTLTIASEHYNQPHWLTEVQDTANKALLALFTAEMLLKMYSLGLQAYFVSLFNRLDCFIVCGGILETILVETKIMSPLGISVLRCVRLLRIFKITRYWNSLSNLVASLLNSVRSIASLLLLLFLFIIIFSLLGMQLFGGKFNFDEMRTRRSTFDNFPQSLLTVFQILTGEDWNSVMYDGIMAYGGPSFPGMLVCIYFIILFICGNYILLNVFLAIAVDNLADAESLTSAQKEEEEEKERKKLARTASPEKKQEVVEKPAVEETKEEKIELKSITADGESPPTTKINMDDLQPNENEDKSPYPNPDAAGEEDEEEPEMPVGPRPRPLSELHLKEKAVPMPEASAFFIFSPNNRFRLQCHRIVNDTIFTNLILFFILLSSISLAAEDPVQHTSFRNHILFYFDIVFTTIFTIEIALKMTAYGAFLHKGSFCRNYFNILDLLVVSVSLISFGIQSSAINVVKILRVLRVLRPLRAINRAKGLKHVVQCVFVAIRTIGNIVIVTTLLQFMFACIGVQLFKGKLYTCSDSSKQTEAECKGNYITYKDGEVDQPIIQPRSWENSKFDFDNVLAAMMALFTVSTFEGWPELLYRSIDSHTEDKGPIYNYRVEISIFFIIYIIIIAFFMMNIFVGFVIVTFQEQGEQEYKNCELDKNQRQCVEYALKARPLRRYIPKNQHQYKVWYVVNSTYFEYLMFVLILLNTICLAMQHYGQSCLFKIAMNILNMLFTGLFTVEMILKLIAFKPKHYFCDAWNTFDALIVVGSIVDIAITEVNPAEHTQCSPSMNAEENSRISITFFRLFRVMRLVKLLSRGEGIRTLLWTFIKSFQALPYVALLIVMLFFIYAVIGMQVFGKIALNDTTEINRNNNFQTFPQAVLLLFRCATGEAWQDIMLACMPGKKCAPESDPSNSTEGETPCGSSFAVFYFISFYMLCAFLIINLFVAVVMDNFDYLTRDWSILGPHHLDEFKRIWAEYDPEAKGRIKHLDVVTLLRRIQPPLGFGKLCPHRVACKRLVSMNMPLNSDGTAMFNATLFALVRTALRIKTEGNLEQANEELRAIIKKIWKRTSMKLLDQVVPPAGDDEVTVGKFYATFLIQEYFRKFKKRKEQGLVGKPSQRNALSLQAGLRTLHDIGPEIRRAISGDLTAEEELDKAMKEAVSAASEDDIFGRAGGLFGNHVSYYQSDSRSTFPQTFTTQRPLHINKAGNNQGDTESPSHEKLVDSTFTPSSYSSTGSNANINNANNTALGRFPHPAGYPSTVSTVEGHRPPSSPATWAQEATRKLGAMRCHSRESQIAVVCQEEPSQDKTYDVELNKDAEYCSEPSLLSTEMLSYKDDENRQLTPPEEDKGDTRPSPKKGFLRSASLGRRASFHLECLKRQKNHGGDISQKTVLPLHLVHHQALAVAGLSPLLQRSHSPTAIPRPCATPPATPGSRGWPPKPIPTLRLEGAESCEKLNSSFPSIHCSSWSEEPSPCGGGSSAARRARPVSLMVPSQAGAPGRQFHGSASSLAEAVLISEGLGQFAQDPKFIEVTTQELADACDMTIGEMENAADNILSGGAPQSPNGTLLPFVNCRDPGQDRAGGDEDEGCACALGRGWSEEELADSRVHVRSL
Protocol: Strips of taenia from the caecum or pieces of ileum, 2 cm in length, from male guinea pigs (200-400 g) were set up in isolated organ baths in Ca^++ -free K^+ Tyrode's solution (mM NaCl 137, KCl 40, NaH2 PO4 0.4, NaHCO3 11.9, glucose 5.5) and gassed with 95% O2, 5% CO2 at 37° C. Contractions were measured with isotonic transducers with a 1 g load. Cumulative dose-response curves were obtained. Tissues were then washed and incubated with the compounds for 20-25 minutes and then Ca^++ concentration response curves re-established. […] Dose ratios were determined graphically at ED50 values from the Ca^++ dose-response curve and Schild plots were constructed to determine pA2 value using inverse regression line analysis. Alternatively, when only one concentration of an antagonist was used, pA2 values were calculated according to the method of J. M. Van Rossum, Arch. Int. Pharmacodyn Ther. 143: 299-330 (1963).

[2] = biological target: [^3 H]d-cis-diltiazem binding to rat whole brain membranes (calcium ion-channel protein); experiment: [^3 H]d-cis-Diltiazem binding assay (displacement from rat whole brain membranes); design: species or system rat (male Sprague-Dawley); conditions: for pKi: Table 1, displacement of 3H diltiazem, rat brain membranes, n = 3, Cheng & Prusoff; for IC50: ligand […]
Protocol: The whole brain from male Sprague-Dawley rats (200-300 g) was dissected and homogenized in cold 50 mM Tris-HCl buffer (pH 7.4) for 2 x 30 second periods by Polytron (Brinkmann, setting No. 5). The homogenate was washed 2 times (48,000 ×g for 10 minutes, 4° C.) with intermittent resuspension of the pellet in fresh buffer. The final pellet was resuspended to an original tissue concentration of 100 mg/ml in Tris-HCl buffer. […] The reaction was terminated by rapid filtration under a vacuum through 0.05% polyethylenimine-pretreated Whatman GF/B glass fiber filters. Filters were immediately washed 2 times with 4 ml of cold Tris-HCl buffer. Pretreatment of the filters with 0.05% polyethylenimine served to eliminate [^3 H]d-cis-diltiazem binding to the filter. The filters were dried and the radioactivity in the filters was extracted overnight in scintillation fluid.

[3] = biological target: T2, [^3 H]nitrendipine binding to rat heart membranes (calcium ion-channel protein) (Rattus norvegicus, UniProt P22002); experiment: [^3 H]Nitrendipine binding assay (enhancement of binding to rat heart membranes); design: species or system rat (male Sprague-Dawley); conditions: ligand 0.1 nM, mean ± SEM; for activity at 1 µM: 10^-6 M; for activity at 0.1 µM: 10^-7 M
T2 construct: Membranes were prepared from the hearts of male Sprague-Dawley rats; from tissue; host or cells: heart membranes of male Sprague-Dawley rats
Protocol: Membranes were prepared from the hearts of male Sprague-Dawley rats and [^3 H]nitrendipine binding was conducted as described in detail by H. R. Lee, et al., J. Pharmacol Exp. Ther. 233:611-616, (1985), as modified by F. J. Ehlert, et al., Biochem. Biophys. Rec. Common. 104:937-943, (1982). The ability of compounds tested at 10^-6 and 10^-7 M to enhance [^3 H]nitredepine binding was taken as indicative of diltiazem-like calcium antagonistic properties.
Values are the mean ± SEM of single experiments run in triplicate at
the concentrations of drugs indicated. Ligand concentration was 0.1 nM an
control specific binding was 49.6 ± 1.7 fmol/mg protein.

[4] = test system: calcium ion-channel protein; conditions: [^3 H]nitrendipine as the ligand; cited from earlier work

Work on `C1CCNC(=N[C@@H]2CCC[C@@H]2C2CCCCC2)CC1` (relative stereo) [Test Compound 12, 2-[(cis-2-cyclohexylcyclopentyl)imino]hexahydroazepine] yielded a pA2 [1] of 5.54 and a pKi ([2]; 25° C.) of 5.54.
For `Clc1ccc(C(N=C2CCCCCN2)c2ccc(Cl)cc2)cc1` [Test Compound 10, 2-[(p-chloro-α-[p-chlorophenyl]benzyl)imino]hexahydroazepine], the pA2 [1] was 6.33 and the pKi ([2]; 25° C.) was 6.08.
Molecule `CCCC(CN=C1CCCCN1)(c1ccccc1)c1ccccc1` [Test Compound 7, 2-[(2,2-diphenylpentyl)imino]piperidine] has a pA2 ([1]; listed as 7) of 6.15.
Molecule `CC(N=C1CCCCCN1)c1cccc2ccccc12` (single isomer, unassigned; (-)) [Test Compound 26, (-)-hexahydro-N-[1-(1-naphthalenyl)ethyl]2H-azepin-2-imine] has a pA2 [1] of 5.18.
For `C1CCCCCNC(=NC2CC3CCC2C3)CCCCC1` (stereo not shown) [Test Compound 4, 2-(2-norbornylimino)azacyclotridecane], the pA2 [1] was 6.07, the pKi ([2]; 25° C.) was 5.92 and the activity at 1 µM ([3]; 25° C.) was 106 ± 4%. For the same molecule, the activity at 0.1 µM ([3]; 25° C.) was 105 ± 4%, the activity at 1 µM ([3]; 37° C.) was 116 ± 8% and the activity at 0.1 µM ([3]; 37° C.) was 108 ± 7%.
`FC(F)(F)c1cccc(C(N=C2CCCCCN2)c2ccccc2)c1` (stereo not shown) [Test Compound 11, hexahydro-N-[phenyl[3-(trifluoromethyl)phenyl]methyl]-2H-azepin-2-imine] gave a pA2 [1] of 5.60 and a pKi ([2]; 25° C.) of 5.92.
In the case of `COc1ccc(CCN(C)CCCC(C#N)(c2ccc(OC)c(OC)c2)C(C)C)cc1OC` (stereo not shown) [verapamil], the “effect on [^3 H]nitrendipine binding” value [4] is given as “displaces [^3 H]nitrendipine in a non-competitive manner”.
Molecule `CCCC(CN=C1CCCCN1)(c1ccccc1)c1ccccc1` [Test Compound 23, 2-[(2,2-diphenylpentyl)imino]piperidine] has a pA2 ([1]; listed as 23) of 6.04.
With `CCCC(CN=C1CCCCCCCCCCCN1)(c1ccccc1)c1ccccc1` [Test Compound 1, N-(2,2-diphenylpentyl)azacyclotridecan-2-imine] the “mean pA2 value (95% confidence interval), Schild plot” value [1] was 7.27 (6.95-8.12), the “mean slope (±S.D.) of Schild plot” value [1] was 0.94 (0.21) and the pKi ([2]; 25° C.) was 6.49. It also gave an activity at 1 µM ([3]; 25° C.) of 123 ± 6%, an activity at 0.1 µM ([3]; 25° C.) of 119 ± 6% and an activity at 1 µM ([3]; 37° C.) of 224 ± 14%. For the same molecule, the activity at 0.1 µM ([3]; 37° C.) was 252 ± 13%.
Work on `c1ccc([C@@H]2CCC[C@@H]2N=C2CCCN2)cc1` (relative stereo) [Test Compound 16] yielded a pKi ([2]; 25° C.) of 4.96.
In the case of `CCCC(CN=C1CCCCCN1)(c1ccccc1)c1ccccc1` [Test Compound 22, hexahydro-2-[(2,2-diphenylpentyl)imino]azepine], the pA2 ([1]; listed as 22) is reported as 6.31.
For `CCCC(CN=C1CCCCCCN1)(c1ccccc1)c1ccccc1` [Test Compound 24, 2-[(2,2-diphenylpentyl)imino]octahydroazocine], the pA2 ([1]; listed as 24) was 6.63.
For `COc1ccc([C@@H]2Sc3ccccc3N(CCN(C)C)C(=O)[C@@H]2OC(C)=O)cc1` [Test Compound 17, (1)-cis-5-2-(dimethylamino)etnyl]2,3-dihydro-3-hydroxy-2-(p-methoxyphenyl)-1,5-benzothiazepin-4(5H)-one acetate, reference compound], the “mean slope (±S.D.) of Schild plot” value [1] is listed as 1.00 (0.15), the “effect on [^3 H]nitrendipine binding” value [4] is listed as “enhances binding” and the activity at 1 µM ([3]; 25° C.) is listed as 83 ± 8%. It also gave an activity at 0.1 µM ([3]; 25° C.) of 96 ± 5%, an activity at 1 µM ([3]; 37° C.) of 262 ± 10% and an activity at 0.1 µM ([3]; 37° C.) of 218 ± 4%.
For `CCCC(CN=C1CCCCCN1)(c1ccccc1)c1ccccc1` [Test Compound 6, hexahydro-2-[(2,2-diphenylpentyl)imino]azepine], the pA2 ([1]; listed as 6) was 6.64.
In the case of `c1ccc(-c2ccccc2N=C2CCCCCCCCCCCN2)cc1` [Test Compound 2, 2-(o-biphenylylimino)azacyclotridecane], the “mean pA2 value (95% confidence interval), Schild plot” value [1] is reported as 6.59 (6.33-7.17), the activity at 1 µM ([3]; 25° C.) is reported as 123 ± 10% and the activity at 0.1 µM ([3]; 25° C.) is reported as 117 ± 7%. The activity at 1 µM ([3]; 37° C.) was 152 ± 15% and the activity at 0.1 µM ([3]; 37° C.) was 152 ± 9%.
`c1ccc(C(CCN=C2CCCCCN2)c2ccccc2)cc1` [Test Compound 20, hexahydro-2-[3,3-diphenylpropylimino)azepine] showed a pA2 [1] of 6.19.
Work on `CCCC(CN=C1CCCCCCN1)(c1ccccc1)c1ccccc1` [Test Compound 5, 2-[(2,2-diphenylpentyl)imino]octahydroazocine] yielded a pA2 ([1]; listed as 5) of 6.60, an activity at 1 µM ([3]; 37° C.) of 122 ± 3% and an activity at 0.1 µM ([3]; 37° C.) of 111 ± 9%.
With `C1CCNC(=NC2C3CC4CC(C3)CC2C4)CC1` (stereo not shown) [Test Compound 13, 2-(2-adamantanylimino)hexahydroazepine] the pA2 [1] was 5.47 and the pKi ([2]; 25° C.) was 4.70.
In the case of `CCCCOc1ccc(C(N=C2CCCCCN2)c2ccccc2)cc1` (stereo not drawn) [Test Compound 9, 2-[(p-butoxy-α-phenylbenzyl)imino]hexahydroazepine], the pA2 [1] is reported as 5.86 and the pKi ([2]; 25° C.) is reported as 6.17.
In the case of `CC(N=C1CCCCCN1)c1cccc2ccccc12` (single isomer, unassigned; (+)) [Test Compound 25, (+)-hexahydro-N-[1-(1-naphthalenyl)ethyl]2H-azepin-2-imine], the pA2 [1] is reported as 5.47.
In the case of `COc1cc(CN=C2NCCC2=Cc2ccc(C)cc2)ccc1O` [Test Compound 19, 2-methoxy-4-[[[3-[(4-methylphenyl)methylene]-2-pyrrolidinyliden]amino]methyl]phenol], the IC50 ([2]; 25° C.) is reported as 1260 ± 90 nM and the IC50 ([2]; 37° C.) is reported as 1900 ± 230 nM.
For `c1ccc([C@H]2CCC[C@H]2N=C2CCCCCN2)cc1` (relative stereo) [Test Compound 15, hexahydro-2-[(cis-2-phenylcyclopentyl)imino]azepine], the pKi ([2]; 25° C.) was 4.16.
`c1ccc(C(N=C2CCCCCCN2)C23CC4CC(CC(C4)C2)C3)cc1` (stereo not drawn) [Test Compound 8, 2-[[α-(1-adamantanyl)benzyl]imino]octahydroazocine] showed a pA2 [1] of 6.63 and a pKi ([2]; 25° C.) of 6.72.
For `c1ccc([C@H]2CCC[C@H]2N=C2CCCCCCCN2)cc1` (relative stereo) [Test Compound 14, octahydro-2-[(cis-2-phenylcyclopentyl)imino]azonine], the pA2 [1] was 4.84 and the pKi ([2]; 25° C.) was 5.26.
Molecule `c1ccc(C(CN=C2CCCCCN2)c2ccccc2)cc1` [Test Compound 21, hexahydro-2-(2,2-diphenylethylimino)azepine] has a pA2 [1] of 6.14.
